IC50 and Ki data for 16 compounds are collected here from patent publication US11840533B2, “Pyridinone-based epigenetic modifiers and uses thereof” (THE BOARD OF TRUSTEES OF THE UNIVERSITY OF ILLINOIS, priority 2017, dated 2023).

Assay [1] relates to fulvestrant-resistant MCF7:5C-FR cells. In words: Fulvestrant-resistant breast cancer cell viability (cell proliferation) assay. It counts as cell-based. The note with it: 120 h, growth inhibition in fulvestrant-resistant MCF-7:CFR cells, 120 hrs. The method in brief:
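Cells were treated the day after seeding with compounds at 3 nM to 10 uM for 120 h, with 0.1% DMSO vehicle and 1 uM JQ1 as positive control. Hoechst 33342-stained (5 μg/ml, 90 min, 37 C) nuclei were imaged and counted, and cell numbers normalized to vehicle.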

The target of another assay is BRD4 bromodomain 1 (Homo sapiens (Human), UniProt O60885). In words: TR-FRET BRD4 binding assay, bromodomain 1. Particulars: read-out: TR-FRET BRD4-BD1 Ki. On the procedure:
(§1) Briefly, compounds were serial diluted into the 1×TR-FRET Assay Buffer with no more than 8% DMSO, and the final concentration tested was distributed from […] to 10 uM with no more than 2% DMSO. (+)JQ-1 was used as positive control. […] Then the reconstituted BRD4 bromodomain ligand/APC Acceptor Mixture were added to every well and incubate for 1 hr at room temperature. The plate was sealed with adhesive aluminum seal to prevent photobleaching. Then the plate was read in time-resolved format by exiting the well at 340 nm and reading emmission at 620 and 670 nm, using 100 us delay and 500 us read window. Data analysis was performed using the TR-FRET ratio which is the 670 nm emission/620 nm emission.

Another assay deals with BRD4 bromodomain 2 (Homo sapiens (Human), UniProt O60885). The experiment in a line: TR-FRET BRD4 binding assay, bromodomain 2. The note with it: read-out: TR-FRET BRD4-BD2 Ki. On the procedure: as §1
A general note: In TR-FRET formats the signal depends on donor and acceptor labels being close together.

Usually IC50 stands for the concentration that gives 50% inhibition. A word on the Ki: it is the equilibrium dissociation constant of an inhibitor or competing ligand from its target. In assay [1], `Cn1cc(-c2cc(C(C)(C)O)c3ccn(C(C)(c4ccccn4)c4ccccn4)c3c2)c2cc[nH]c(=O)c21` [Compound 72, 3-(1-(1,1-di(pyridin-2-yl)ethyl)-4-(2-hydroxypropan-2-yl)-1H-indol-6-yl)-1-methyl-1H-pyrrolo[2,3-c]pyridin-7(6H)-one] displayed a half-maximal inhibitory concentration (IC50) of 20 nM. The inhibition constant (Ki) at BRD4 bromodomain 1 and at BRD4 bromodomain 2 was less than 10 nM in each case.
`CC(=O)Nc1cc(-c2cn(C)c3c(=O)[nH]ccc23)cc2c1ccn2C(C)(c1ccccn1)c1ccccn1` [Compound 71, N-(1-(1,1-di(pyridin-2-yl)ethyl)-6-(1-methyl-7-oxo-6,7-dihydro-1H-pyrrolo[2,3-c]pyridin-3-yl)-1H-indol-4-yl)acetamide] yielded a half-maximal inhibitory concentration (IC50) in assay [1] of 10 nM. Moreover, the Ki on BRD4 bromodomain 1 and on BRD4 bromodomain 2 was less than 10 nM each time.
As to `Cn1cc(-c2cc(NS(C)(=O)=O)c3ccn(Cc4ccc(F)cc4)c3c2)c2ccnc(O)c21` [Compound 23, N-(1-(4-fluorobenzyl)-6-(7-hydroxy-1-methyl-1H-pyrrolo[2,3-c]pyridin-3-yl)-1-indol-4-yl)methanesulfonamide], in assay [1], the IC50 is 17 nM. For the same compound, the inhibitory constant (Ki) at BRD4 bromodomain 1 and on BRD4 bromodomain 2 was less than 100 nM in each case.
Regarding `CCS(=O)(=O)Nc1cc(-c2cn(C)c3c(O)nccc23)cc2c1cnn2Cc1ccc(F)cc1` [Compound 31, N-(1-(4-fluorobenzyl)-6-(7-hydroxy-1-methyl-1H-pyrrolo[2,3-c]pyridin-3-yl)-1H-indazol-4-yl)ethanesulfonamide], the IC50 in assay [1] is 15 nM. Further, the Ki on BRD4 bromodomain 1 and at BRD4 bromodomain 2 was less than 100 nM throughout.
In assay [1], `Cn1cc(-c2cc(NS(C)(=O)=O)c3cnn(Cc4ccc(F)cc4)c3c2)c2ccnc(O)c21` [Compound 30, N-(1-(4-fluorobenzyl)-6-(7-hydroxy-1-methyl-1H-pyrrolo[2,3-c]pyridin-3-yl)-1H-indazol-4-yl)methanesulfonamide] gave an IC50 of 40 nM. The Ki at BRD4 bromodomain 1 and on BRD4 bromodomain 2 was less than 100 nM throughout.
Consider `Cn1cc(-c2cc3c(NS(C)(=O)=O)cccc3n2[C@@H](c2ccccc2)C2CCOCC2)c2ccnc(O)c21` [Compound 123, (R)-N-(2-(7-hydroxy-1-methyl-1H-pyrrolo[2,3-c]pyridin-3-yl)-1-(phenyl(tetrahydro-2H-pyran-4-yl)methyl)-1H-indol-4-yl)methanesulfonamide], for which the IC50 in assay [1] is less than 1000 nM.
The same measure, in the same setting: for `CCS(=O)(=O)Nc1cc(-c2cn(C)c3c(=O)[nH]ccc23)cc2c1ccn2C(C)(c1nccs1)c1nccs1` [Compound 102, N-(1-(1,1-di(thiazol-2-yl)ethyl)-6-(1-methyl-7-oxo-6,7-dihydro-1H-pyrrolo[2,3-c]pyridin-3-yl)-1H-indol-4-yl)ethanesulfonamide] the value was less than 1000 nM; for `CCC(=O)N(c1cc(-c2cn(C)c3c(=O)[nH]ccc23)cc2c1ccn2Cc1c(C)cccc1Cl)C1CC1` [Compound 78, N-(1-(2-chloro-6-methylbenzyl)-6-(7-hydroxy-1-methyl-1H-pyrrolo[2,3-c]pyridin-3-yl)-1H-indol-4-yl)-N-cyclopropylpropionamide], more than 100 nM; for `Cn1cc(-c2cn(CC(N)=O)c3ccc(Br)cc23)c2ccnc(O)c21` [Compound 18, 2-(5-bromo-3-(7-hydroxy-1-methyl-1H-pyrrolo[2,3-c]pyridin-3-yl)-1H-indol-1-yl)acetamide], more than 1000 nM.
Still for that read-out and setting: for `CC(C)C(=O)Nc1cc(-c2cn(C)c3c(=O)[nH]ccc23)cc2c1ccn2C(C)(c1ccccn1)c1ccccn1` [Compound 131, N-(1-(1,1-di(pyridin-2-yl)ethyl)-6-(1-methyl-7-oxo-6,7-dihydro-1H-pyrrolo[2,3-c]pyridin-3-yl)-1H-indol-4-yl)isobutyramide] the value was less than 100 nM.
Same read-out and setting: for `Cn1cc(-c2cc(S(C)(=O)=O)c3ccn(C(C)(c4ccccn4)c4ccccn4)c3c2)c2cc[nH]c(=O)c21` [Compound 128, 3-(1-(1,1-di(pyridin-2-yl)ethyl)-4-(methylsulfonyl)-1H-indol-6-yl)-1-methyl-1,6-dihydro-7H-pyrrolo[2,3-c]pyridin-7-one] the value was less than 1000 nM; for `CCS(=O)(=O)Nc1cc(-c2cn(C)c3c(O)nccc23)cc2c1ccn2Cc1ccc(F)cc1F` [Compound 29, N-(1-(2,4-difluorobenzyl)-6-(7-hydroxy-1-methyl-1H-pyrrolo[2,3-c]pyridin-3-yl)-1H-indol-4-yl)ethanesulfonamide], less than 500 nM.
In assay [1], `Cn1cc(-c2nc3c(NS(C)(=O)=O)cccc3n2[C@H](c2ccccc2)C2CCOCC2)c2ccnc(O)c21` [Compound 67, (S)-N-(2-(7-hydroxy-1-methyl-1H-pyrrolo[2,3-c]pyridin-3-yl)-1-(phenyl(tetrahydro-2H-pyran-4-yl)methyl)-1H-benzo[d]imidaol-4-yl)methanesulfonamide] came in with an IC50 of less than 1000 nM.
The same measure, in the same setting: for `CCS(=O)(=O)Nc1cc(-c2cn(C)c3c(O)nccc23)cc2c1ncn2Cc1ccc(F)cc1` [Compound 37, N-(1-(4-fluorobenzyl)-6-(7-hydroxy-1-methyl-1H-pyrrolo[2,3-c]pyridin-3-yl)-1H-benzo[d]imidazol-4-yl)ethanesulfonamide] the value was less than 1000 nM.
Still for that read-out and setting: for `CCS(=O)(=O)Nc1cccc2c1nc(-c1cn(C)c3c(O)nccc13)n2Cc1ccc(F)cc1` [Compound 40, N-(1-(4-fluorobenzyl)-2-(7-hydroxy-1-methyl-1H-pyrrolo[2,3-c]pyridin-3-yl)-1H-benzo[d]imidazol-4-yl)ethanesulfonamide] the value was less than 1000 nM; for `CCS(=O)(=O)Nc1cc(-c2cn(C)c3c(O)nccc23)cc2c1ccn2Cc1ccc(F)cc1` [Compound 24, N-(1-(4-fluorobenzyl)-6-(7-hydroxy-1-methyl-1H-pyrrolo[2,3-c]pyridin-3-yl)-1H-indol-4-yl)ethanesulfonamide], less than 200 nM.
